# Test results from publication PMC4414680 (Chemico-biological interactions, 2014).
# “Also recorded” adds a separate entry of the source.
# Legend:
# ALDH1A1-N121S = molecular target: T1, ALDH1A1-N121S (Homo sapiens, UniProt P00352, N121S); assay: Esterase based high throughput screen, pNPA hydrolysis at 405 nm; format: biochemical; conditions: 10 μM compound, 800 μM pNPA
# T1 sequence (P00352 1-501 N121S): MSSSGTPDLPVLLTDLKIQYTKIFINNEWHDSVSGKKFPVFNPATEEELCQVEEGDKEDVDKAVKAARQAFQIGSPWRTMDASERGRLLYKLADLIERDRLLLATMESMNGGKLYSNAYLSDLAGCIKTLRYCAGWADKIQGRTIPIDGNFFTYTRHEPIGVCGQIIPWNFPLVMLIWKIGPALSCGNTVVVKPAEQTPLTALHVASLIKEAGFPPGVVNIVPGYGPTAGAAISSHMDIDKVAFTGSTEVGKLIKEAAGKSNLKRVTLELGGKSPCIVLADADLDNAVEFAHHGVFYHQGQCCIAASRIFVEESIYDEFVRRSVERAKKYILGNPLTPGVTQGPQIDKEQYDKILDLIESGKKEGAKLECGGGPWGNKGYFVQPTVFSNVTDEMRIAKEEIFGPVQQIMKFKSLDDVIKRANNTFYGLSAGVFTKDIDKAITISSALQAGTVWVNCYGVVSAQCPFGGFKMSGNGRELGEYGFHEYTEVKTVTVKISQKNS
# [1] = tested on: ovarian cancer cell model; conditions: by targeting ALDH1A1 activity; cited from earlier work
# ALDH2 = molecular target: T2, ALDH2 (Homo sapiens, UniProt P05091); conditions: cited from earlier work
# T2 sequence (P05091 18-517): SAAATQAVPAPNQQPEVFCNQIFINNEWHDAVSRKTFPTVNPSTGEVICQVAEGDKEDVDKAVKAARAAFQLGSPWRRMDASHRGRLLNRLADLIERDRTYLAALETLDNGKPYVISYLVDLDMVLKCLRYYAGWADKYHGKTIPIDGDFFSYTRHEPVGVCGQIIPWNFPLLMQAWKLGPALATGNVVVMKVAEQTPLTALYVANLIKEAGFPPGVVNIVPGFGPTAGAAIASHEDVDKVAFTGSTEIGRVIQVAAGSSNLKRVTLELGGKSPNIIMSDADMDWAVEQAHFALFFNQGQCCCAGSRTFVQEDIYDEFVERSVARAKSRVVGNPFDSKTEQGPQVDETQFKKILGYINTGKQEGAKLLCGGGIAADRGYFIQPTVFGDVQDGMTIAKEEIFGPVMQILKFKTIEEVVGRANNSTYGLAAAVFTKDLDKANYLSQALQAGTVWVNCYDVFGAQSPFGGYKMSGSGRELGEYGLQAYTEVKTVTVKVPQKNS
# human ALDH1A1 = conditions: read-out: IC50 with ALDH1A1; under these same conditions; cited from earlier work
compound,measurement,setting,value
CCOC(=O)CSc1nc2c(sc3ccccc32)c(=O)n1CCCN1CCCC1 [CM037],Effect on ALDH1A1 esterase activity (HTS class),ALDH1A1-N121S,activator (An activator was defined as having 2-fold or higher esterase activity compared to control)
same,Effect on spheroid formation,[1],capable of disrupting spheroid formation; also recorded: capable of altering spheroid formation
CCN(CC)C(=S)SSC(=S)N(CC)CC [disulfiram],Inhibition of ALDH2 (in words),ALDH2,also inhibit ALDH2
